From article PMC9785777, “Antidiabetic Potential of Novel 1,3,5-Trisubstituted-2-Thioxoimidazloidin-4-One Analogues: Insights into α-Glucosidase, α-Amylase, and Antioxidant Activities” (Pharmaceuticals, 2022)
≈ marks a conversion by molar mass, not a printed value.

Experiments:
[1] = target: T1, α-glucosidase enzyme (EC3.2.1.20) (Saccharomyces cerevisiae, UniProt P53341); experiment: biochemical; conditions: for inhibition at 1 µg/mL / inhibition at 10 µg/mL / inhibition at 100 µg/mL / inhibition at 1000 µg/mL: read-out: % inhibition of α-glucosidase
T1 construct: purchased Sigma-Aldrich
Description: The α-glucosidase enzyme is mainly expressed in the small intestine and catalyzes the breakdown of carbohydrates into glucose units by cleaving the glucosidic bonds. α-Glucosidase blockers are the first-line drugs for the treatment of non-insulin-dependent DM by suppressing carbohydrate hydrolysis and consequently retarding glucose absorption into the bloodstream and reducing postprandial hyperglycemia. α-Glucosidase is, thus, considered to be an attractive pharmaceutical target for the treatment of […] via control of the blood glucose levels. Accordingly, there is a continuous need to develop a potential class of α-glucosidase inhibitors. Toward this aim, we explored the potency of the synthesized compounds to inhibit the activity of α-glucosidase. We examined the inhibitory activity of the synthesized compounds following the reported assay by Peytam et al.. Thus, the compounds at different concentrations (1000, 100, 10, and 1 µg/mL) were incubated with α-glucosidase and subsequently […] was added and the absorbance was monitored at 405 nm. […] To further investigate the structural aspects of 1,3-thiohydantoin scaffold, a substitution at the N1-position with the methyl-proponate group was performed. […] Nevertheless, it has adverse gastrointestinal effects including diarrhea and flatulence. Thus, the discovery of a novel class of potent antidiabetic agents is urgently demanded.
An ELISA reader was used to assess the inhibition of α-glucosidase by 1,3,5-trisubstituted-2-thioxoimidazolidin-4-ones derivatives at various doses (1000, 100, 10, and 1 µg/mL) according to Peytam et al.. […] Then, the substrate (25 µL, 4 mM) was added to the mentioned mixture and allowed to incubate at 37 °C for 20 min. Finally, the change in absorbance at 405 nm was monitored using a Cytation 3 hybrid microplate reader (BioTek, Winooski, VT, USA). […] GraphPad prism 6.0 was used to calculate the IC50 values of the investigated compounds from the nonlinear regression curve (Systat Software, Inc. Tools for Science) (https://www.graphpad.com/scientific-software/prism/ (accessed on 1 September 2022)).

[2] = MTT cytotoxicity assay against WI-38 cells; type: cell-based, human; conditions: human, WI-38 lung fibroblast cells; for viability at 48 h, 4 µg/mL: 4 µg/mL (log conc. 0.602); for viability at 48 h, 16 µg/mL: 16 µg/mL (log conc. 1.204); for viability at 48 h, 63 µg/mL: 63 µg/mL (log conc. 1.799); for viability at 48 h, 250 µg/mL: 250 µg/mL (log conc. 2.398); for viability at 48 h, 1000 µg/mL: 1000 µg/mL (log conc. 3); for IC50 at 48 h: MTT
Description: Based on the promising dual inhibitory activity of this class of compounds, we next evaluated the cytotoxicity of compounds 5a and 7a against human lung fibroblast cell line WI-38 in order to gain insights into the toxicity of this class of compounds utilizing the MTT assay. In this regard, lung fibroblast cells were cultured and treated with compounds 5a and 7a for 48 h at different concentrations (1000, 250, 63, 16, and 4 µg/mL). After the cells were washed, they were treated with MTT solution and the absorption was assessed using an ELISA reader at 570 nm. As a pharmacological reference drug, Celecoxib, a well-known anti-inflammatory agent, was utilized.
The cytotoxicity of compounds 5a and 7a was assessed toward the human lung fibroblast WI-38 cell line (Sigma-Aldrich, St. Louis, MO, USA, product number 90020107) using MTT assay. The MTT test assay was performed in accordance with the previously stated procedure. MTT (3-(4,5-dimethylthiazol-2-yl)-2,5-diphenyl tetrazolium bromide; Sigma catalog no. M2128) was dissolved in PBS at 5 mg/mL and processed to eliminate the insoluble residues. Briefly, cells (10^5 cells/well) were treated for 48 h at 37 °C with compounds 5a and 7a at varied doses (1000, 250, 63, 16, and 4 µg/mL, DMSO stock solutions) in a 5% CO2 atmosphere. In our assessment, celecoxib, an inhibitor of cyclooxygenase 2, was employed as a standard reference drug. Following cell washing, MTT solution (180 µL/well) was applied to the cells and incubated at 37 °C for 4 h with shaking, and the absorbance was measured using an ELISA reader at 570 nm.

[3] = DPPH free radical scavenging assay; conditions: for DPPH free radical scavenging IC50: n = 4
Description: The antioxidant capability of compounds 5a and 7a was estimated utilizing the DPPH (2,2-diphenyl-1- picrylhydrazyl) scavenging assay to assess the free radical scavenger activity. DPPH is a stable free radical substrate with a purple color which upon reaction with an antioxidant compound, converts into 1,1-diphenyl-2-picryl hydrazine, a […] compound. The DPPH assay is widely applied for the investigation of superoxide radical scavenging activity. In this regard, compounds 5a and 7a were incubated at different concentrations (3.12, 6.25, 12.5, 25, 50, 100, and 200 µg/mL) with DPPH substrate and the absorption was assessed by ELISA at 510 nm. In our investigations, Trolox, a water-soluble analogue of vitamin E, was applied as a standard antioxidant reference drug. […] Further, Qamar et al. synthesized and evaluated the antioxidant activity of some novel N3-substituted-2-thiohydantoins.
According to Valko et al., the ELISA approach was used to analyze the free-radical DPPH scavenging activity of compounds (5a and 7a) at different concentrations (3.12, 6.25, 12.5, 25, 50, 100, and 200 µg/mL). The DPPH assay assesses the hydrogen-donating activity and thus provides an evaluation of the antioxidant activity via estimating the DPPH free-radical scavenging activity. The color intensity of the reaction mixture was measured after a purple-colored stable free radical (DPPH) was reduced into the yellow-colored diphenylpicryl hydrazinem. Briefly, 200 µL of different concentrations of compounds 5a and 7a were mixed with 50 µL of DPPH (0.659 mM) solution, and the mixture was incubated at 25 °C for 20 min. The absorbance of the reaction mixture was estimated after incubation at 510 nm. In our investigations, trolox was employed as standard reference drug. A control reaction was performed, and the inhibitory efficiency of DPPH radical-scavenging activity was determined using the equation below: % Inhibition = (A0 − A1)/A0 × 100 (1) where A0 is absorbance of […] and A1 is the absorbance of the compound.

T1 sequence (P53341 whole entry): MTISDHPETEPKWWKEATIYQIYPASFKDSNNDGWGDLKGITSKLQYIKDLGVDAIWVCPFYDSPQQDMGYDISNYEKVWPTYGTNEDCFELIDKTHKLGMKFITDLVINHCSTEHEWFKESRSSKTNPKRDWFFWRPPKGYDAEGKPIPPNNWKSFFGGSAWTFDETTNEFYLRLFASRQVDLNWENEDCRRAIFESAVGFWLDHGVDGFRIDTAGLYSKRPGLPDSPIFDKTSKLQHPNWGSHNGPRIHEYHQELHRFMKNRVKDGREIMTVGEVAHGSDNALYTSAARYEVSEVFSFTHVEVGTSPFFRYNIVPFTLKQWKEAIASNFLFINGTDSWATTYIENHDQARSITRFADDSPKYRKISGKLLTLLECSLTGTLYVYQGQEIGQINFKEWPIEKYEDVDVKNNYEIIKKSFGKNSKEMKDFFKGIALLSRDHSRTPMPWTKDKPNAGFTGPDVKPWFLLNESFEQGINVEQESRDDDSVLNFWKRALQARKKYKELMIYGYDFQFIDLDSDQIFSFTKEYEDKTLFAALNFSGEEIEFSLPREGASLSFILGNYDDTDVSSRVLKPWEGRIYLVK

SMILES | IC50 [1] | inhibition at 1 µg/mL [1] | inhibition at 10 µg/mL [1] | inhibition at 100 µg/mL [1] | inhibition at 1000 µg/mL [1] | viability at 48 h, 4 µg/mL [2] | viability at 48 h, 16 µg/mL [2] | viability at 48 h, 63 µg/mL [2] | viability at 48 h, 250 µg/mL [2] | viability at 48 h, 1000 µg/mL [2] | IC50 at 48 h [2] | %RSA (DPPH radical scavenging activity) ([3]; 3.12 µg/mL) | %RSA (DPPH radical scavenging activity) ([3]; 6.25 µg/mL) | %RSA (DPPH radical scavenging activity) ([3]; 12.5 µg/mL) | %RSA (DPPH radical scavenging activity) ([3]; 25 µg/mL) | %RSA (DPPH radical scavenging activity) ([3]; 50 µg/mL) | %RSA (DPPH radical scavenging activity) ([3]; 100 µg/mL) | %RSA (DPPH radical scavenging activity) ([3]; 200 µg/mL) | DPPH free radical scavenging IC50 [3]
COC(=O)CCN1C(=S)N(N=C(C)c2ccccc2O)C(=O)C1=Cc1ccccc1O [Compound 5a, Methyl [5-(2-hydroxybenzylidene)-4-oxo-3-(2-hydroxyphenylethylidene)amino-2-thioxoimidazolidin-1-yl] propionate] | 11.6 µM | 35% | 58% | 75% | 86% | 69% | 59.8% | 52.9% | 44.1% | 34.6% | 88.5 µg/mL (≈ 201 µM) | 12.8385% | 25.9268% | 34.2% | 49.2589% | 65.3256% | 84.0278% | 90.9673% | 51.75 µg/mL
COC(=O)CCN1C(=S)N(N=C(C)c2ccccc2O)C(=O)C1=Cc1ccccc1OC(C)=O [Compound 7a, Methyl [5-(2-acetoxybenzylidene)-4-oxo-3-(2-hydroxyphenylethylidene)amino-2-thioxoimidazolidin-1-yl] propionate] | 38.2 µM | 21.8% | 48.3% | 66.1% | 82.6% | 73% | 60.6% | 53.4% | 44.1% | 36.6% | 109 µg/mL (≈ 227 µM) | 9.7382% | 18.9636% | 30.2839% | 45.4635% | 62.2992% | 81.6087% | 80.732% | 65.5 µg/mL
